Experimental data published in PubChem BioAssay (NCI).
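Cultured in 96-well plates, cells were exposed to test compound for 48 hours across five concentrations. TGI denotes the concentration required for complete inhibition of growth.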

What was measured:
Assay in all cases: inhibition of tumour cell growth, NCI panel, 48 h
U251 CNS = tested on: U251 CNS
SK-MEL-28 melanoma = tested on: SK-MEL-28 melanoma
NCI-H226 lung = tested on: NCI-H226 lung
SNB-19 CNS = tested on: SNB-19 CNS
OVCAR-4 ovarian = tested on: OVCAR-4 ovarian
NCI-H460 lung = tested on: NCI-H460 lung
KM12 colon = tested on: KM12 colon
DLD-1 colon = tested on: DLD-1 colon
OVCAR-5 ovarian = tested on: OVCAR-5 ovarian
HOP-18 NSCLC = tested on: HOP-18 NSCLC
LOX IMVI melanoma = tested on: LOX IMVI melanoma
M19-MEL melanoma = tested on: M19-MEL melanoma
786-0 renal = tested on: 786-0 renal
SN12C renal = tested on: SN12C renal
DMS 273 small cell lung = tested on: DMS 273 small cell lung
NCI-H23 lung = tested on: NCI-H23 lung
SW-620 colon = tested on: SW-620 colon
HCT-116 colon = tested on: HCT-116 colon
RXF 393 renal = tested on: RXF 393 renal
NCI-H522 lung = tested on: NCI-H522 lung
ACHN renal = tested on: ACHN renal
COLO 205 colon = tested on: COLO 205 colon
SF-539 CNS = tested on: SF-539 CNS
MALME-3M melanoma = tested on: MALME-3M melanoma
SF-268 CNS = tested on: SF-268 CNS
SNB-78 CNS = tested on: SNB-78 CNS
UACC-257 melanoma = tested on: UACC-257 melanoma
A549 NSCLC = tested on: A549 NSCLC
SK-MEL-2 melanoma = tested on: SK-MEL-2 melanoma
HL-60(TB) leukemia = tested on: HL-60(TB) leukemia
HOP-62 NSCLC = tested on: HOP-62 NSCLC
SF-295 CNS = tested on: SF-295 CNS
DMS 114 small cell lung = tested on: DMS 114 small cell lung
KM20L2 colon = tested on: KM20L2 colon
HCC-2998 colon = tested on: HCC-2998 colon
OVCAR-8 ovarian = tested on: OVCAR-8 ovarian
TK-10 renal = tested on: TK-10 renal
M14 melanoma = tested on: M14 melanoma
EKVX NSCLC = tested on: EKVX NSCLC
CAKI-1 renal = tested on: CAKI-1 renal
LXFL 529 NSCLC = tested on: LXFL 529 NSCLC
UO-31 renal = tested on: UO-31 renal
HT29 colon = tested on: HT29 colon
CCRF-CEM leukemia = tested on: CCRF-CEM leukemia
SK-OV-3 ovarian = tested on: SK-OV-3 ovarian
SR leukemia = tested on: SR leukemia
HCT-15 colon = tested on: HCT-15 colon
OVCAR-3 ovarian = tested on: OVCAR-3 ovarian
K-562 leukemia = tested on: K-562 leukemia
MOLT-4 leukemia = tested on: MOLT-4 leukemia
SK-MEL-5 melanoma = tested on: SK-MEL-5 melanoma
UACC-62 melanoma = tested on: UACC-62 melanoma
SNB-75 CNS = tested on: SNB-75 CNS
IGROV1 ovarian = tested on: IGROV1 ovarian
A498 renal = tested on: A498 renal
HOP-92 NSCLC = tested on: HOP-92 NSCLC
RPMI-8226 leukemia = tested on: RPMI-8226 leukemia

CC/C=C/c1cc2c(c3[nH]ccc13)[C@@H](C)CC2C (stereo partly drawn) (tested in a mixture with another compound)
TGI (U251 CNS): 31.9 µM | TGI (SK-MEL-28 melanoma): 30.2 µM | TGI (NCI-H226 lung): 28.8 µM | TGI (SNB-19 CNS): 33.8 µM | TGI (OVCAR-4 ovarian): 28.9 µM | TGI (NCI-H460 lung): 29.5 µM | TGI (KM12 colon): 32.2 µM | TGI (DLD-1 colon): 26.3 µM | TGI (OVCAR-5 ovarian): 34.1 µM | TGI (HOP-18 NSCLC): 26.5 µM | TGI (LOX IMVI melanoma): 29.4 µM | TGI (M19-MEL melanoma): 35.3 µM | TGI (786-0 renal): 33.1 µM | TGI (SN12C renal): 28.8 µM | TGI (DMS 273 small cell lung): 29.4 µM | TGI (NCI-H23 lung): 33.1 µM | TGI (SW-620 colon): 32.3 µM | TGI (HCT-116 colon): 33.8 µM | TGI (RXF 393 renal): 25.7 µM | TGI (NCI-H522 lung): 30.9 µM | TGI (ACHN renal): 31.7 µM | TGI (COLO 205 colon): 39.7 µM | TGI (SF-539 CNS): 33.6 µM | TGI (MALME-3M melanoma): 36 µM | TGI (SF-268 CNS): 32 µM | TGI (SNB-78 CNS): 32.3 µM | TGI (UACC-257 melanoma): 29.8 µM | TGI (A549 NSCLC): 39.1 µM | TGI (SK-MEL-2 melanoma): 29.6 µM | TGI (HL-60(TB) leukemia): 44.5 µM | TGI (HOP-62 NSCLC): 32.8 µM | TGI (SF-295 CNS): 30.2 µM | TGI (DMS 114 small cell lung): 35.6 µM | TGI (KM20L2 colon): 29.3 µM | TGI (HCC-2998 colon): 10 µM | TGI (OVCAR-8 ovarian): 31.4 µM | TGI (TK-10 renal): 36.9 µM | TGI (M14 melanoma): 29.3 µM | TGI (EKVX NSCLC): 36 µM | TGI (CAKI-1 renal): 31.7 µM | TGI (LXFL 529 NSCLC): 30 µM | TGI (UO-31 renal): 31 µM | TGI (HT29 colon): 28.4 µM

Cc1nc(Nc2ccc(Cl)cc2)sc1C(=O)NNC(=O)C(=O)NN
TGI (U251 CNS): 33.2 µM | TGI (SK-MEL-28 melanoma): 47.3 µM | TGI (NCI-H226 lung): 36.6 µM | TGI (SNB-19 CNS): 46.3 µM | TGI (OVCAR-4 ovarian): 34.3 µM | TGI (NCI-H460 lung): 34.7 µM | TGI (KM12 colon): 36 µM | TGI (CCRF-CEM leukemia): 52.8 µM | TGI (DLD-1 colon): 32.9 µM | TGI (OVCAR-5 ovarian): 34.5 µM | TGI (HOP-18 NSCLC): 37.1 µM | TGI (LOX IMVI melanoma): 32.3 µM | TGI (M19-MEL melanoma): 35.6 µM | TGI (786-0 renal): 32 µM | TGI (SK-OV-3 ovarian): 40.5 µM | TGI (SN12C renal): 30.5 µM | TGI (DMS 273 small cell lung): 33.9 µM | TGI (SR leukemia): 54.8 µM | TGI (HCT-15 colon): 31.6 µM | TGI (NCI-H23 lung): 31.8 µM | TGI (SW-620 colon): 32.6 µM | TGI (HCT-116 colon): 33.9 µM | TGI (RXF 393 renal): 43.4 µM | TGI (OVCAR-3 ovarian): 38.1 µM | TGI (NCI-H522 lung): 32 µM | TGI (ACHN renal): 49.4 µM | TGI (COLO 205 colon): 35.8 µM | TGI (SF-539 CNS): 41 µM | TGI (MALME-3M melanoma): 38.8 µM | TGI (SF-268 CNS): 66.5 µM | TGI (SNB-78 CNS): 64 µM | TGI (UACC-257 melanoma): 52.5 µM | TGI (K-562 leukemia): 51.4 µM | TGI (A549 NSCLC): 37.9 µM | TGI (SK-MEL-2 melanoma): 32.6 µM | TGI (HL-60(TB) leukemia): 41 µM | TGI (HOP-62 NSCLC): 35.9 µM | TGI (SF-295 CNS): 34 µM | TGI (DMS 114 small cell lung): 40.7 µM | TGI (KM20L2 colon): 30 µM | TGI (MOLT-4 leukemia): 42.5 µM | TGI (SK-MEL-5 melanoma): 32.7 µM | TGI (UACC-62 melanoma): 28.6 µM | TGI (HCC-2998 colon): 35.5 µM | TGI (SNB-75 CNS): 48.6 µM | TGI (IGROV1 ovarian): 33.7 µM | TGI (OVCAR-8 ovarian): > 100 µM | TGI (A498 renal): 29.5 µM | TGI (TK-10 renal): 91.7 µM | TGI (M14 melanoma): 34 µM | TGI (HOP-92 NSCLC): 36.4 µM | TGI (EKVX NSCLC): 30.6 µM | TGI (CAKI-1 renal): 49.3 µM | TGI (LXFL 529 NSCLC): 33.6 µM | TGI (UO-31 renal): 31.5 µM | TGI (HT29 colon): 31.2 µM

O=C1CC2C=CC1C2CO (stereo not drawn)
TGI (U251 CNS): > 100 µM | TGI (SK-MEL-28 melanoma): > 100 µM | TGI (NCI-H226 lung): > 100 µM | TGI (SNB-19 CNS): > 100 µM | TGI (OVCAR-4 ovarian): > 100 µM | TGI (NCI-H460 lung): > 100 µM | TGI (KM12 colon): > 100 µM | TGI (CCRF-CEM leukemia): > 100 µM | TGI (DLD-1 colon): > 100 µM | TGI (OVCAR-5 ovarian): > 100 µM | TGI (HOP-18 NSCLC): > 100 µM | TGI (LOX IMVI melanoma): > 100 µM | TGI (M19-MEL melanoma): > 100 µM | TGI (786-0 renal): > 100 µM | TGI (SK-OV-3 ovarian): > 100 µM | TGI (SN12C renal): > 100 µM | TGI (DMS 273 small cell lung): > 100 µM | TGI (SR leukemia): > 100 µM | TGI (HCT-15 colon): > 100 µM | TGI (SW-620 colon): > 100 µM | TGI (HCT-116 colon): > 100 µM | TGI (RXF 393 renal): > 100 µM | TGI (OVCAR-3 ovarian): > 100 µM | TGI (NCI-H522 lung): > 100 µM | TGI (ACHN renal): > 100 µM | TGI (COLO 205 colon): > 100 µM | TGI (SF-539 CNS): > 100 µM | TGI (MALME-3M melanoma): > 100 µM | TGI (RPMI-8226 leukemia): > 100 µM | TGI (SF-268 CNS): > 100 µM | TGI (SNB-78 CNS): > 100 µM | TGI (UACC-257 melanoma): > 100 µM | TGI (A549 NSCLC): > 100 µM | TGI (HL-60(TB) leukemia): > 100 µM | TGI (HOP-62 NSCLC): > 100 µM | TGI (SF-295 CNS): > 100 µM | TGI (DMS 114 small cell lung): > 100 µM | TGI (KM20L2 colon): > 100 µM | TGI (MOLT-4 leukemia): > 100 µM | TGI (SK-MEL-5 melanoma): > 100 µM | TGI (UACC-62 melanoma): > 100 µM | TGI (HCC-2998 colon): > 100 µM | TGI (SNB-75 CNS): > 100 µM | TGI (IGROV1 ovarian): > 100 µM | TGI (OVCAR-8 ovarian): > 100 µM | TGI (A498 renal): > 100 µM | TGI (TK-10 renal): > 100 µM | TGI (M14 melanoma): > 100 µM | TGI (HOP-92 NSCLC): > 100 µM | TGI (EKVX NSCLC): > 100 µM | TGI (CAKI-1 renal): > 100 µM | TGI (LXFL 529 NSCLC): > 100 µM | TGI (UO-31 renal): > 100 µM | TGI (HT29 colon): > 100 µM
